Values of other authors as cited in patent publication US20020072734A1, “Chip systems for the controlled emission of substances having a chemosensory effect” (PHARMED HOLDING GMBH, priority 2000, published 2002).
Read-outs that look alike come from different tables or passages of the source.

Key:
regio olfactoria [1] = conditions: mice; applied to the regio olfactoria
regio olfactoria [2] = conditions: rats; applied to the regio olfactoria

Which “rapid effects in the central nervous system (anxiety)” value (regio olfactoria [1]) does the source give for `CC[C@H](C)[C@@H]1NC(=O)[C@H](Cc2ccc(O)cc2)NC(=O)[C@@H](N)CSSC[C@@H](C(=O)N2CCC[C@H]2C(=O)N[C@@H](CC(C)C)C(=O)NCC(N)=O)NC(=O)[C@H](CC(N)=O)NC(=O)[C@H](CCC(N)=O)NC1=O` [oxytocin] here?
The value was “relieved anxiety”.

And the “rapid effects in the central nervous system (depression, aggression)” value (regio olfactoria [1])?
Its value is “anti-depressive and anti-aggressive”.

What about the “rapid effects in the central nervous system (anxiety)” value (regio olfactoria [2]) of the same compound?
Its value is “relieved anxiety”.

What about the “rapid effects in the central nervous system (depression, aggression)” value (regio olfactoria [2]) of the same compound?
The value was “anti-depressive and anti-aggressive”.
